Experimental data reported in ChEMBL document CHEMBL1159251, “A new polyether acid from a cold water marine sponge, a Phakellia species” (J Nat Prod, 1995).
In brackets after ≈: the same amount, converted by molar mass. Activity calls are given as the source filed them. The calls are words filed in the database; no cut-off is given here.

Columns and labels:
[1] = system: L1210; test: Cytotoxicity against mouse L1210 cells; type: cell-based
[2] = Cytotoxicity against african green monkey CV1 cells assessed as zone of diameter at 0.01 ug/ml; type: cell-based; conditions: chlorocebus aethiops, cv-1
[3] = Cytotoxicity against african green monkey CV1 cells assessed as zone of diameter at 0.1 ug/ml; type: cell-based; conditions: chlorocebus aethiops, cv-1
[4] = system: Human alphaherpesvirus 1; test: Antiviral activity against HSV1 in african green monkey CV1 cells at 0.1 ug/ml by plaque reduction method; type: functional, organism-based; conditions: CV-1
[5] = Cytotoxicity against BHK cells; type: cell-based, Mesocricetus auratus; conditions: hamster
[6] = system: Human alphaherpesvirus 1; test: Antiviral activity against HSV1 in african green monkey CV1 cells at 0.01 ug/ml by plaque reduction method; type: functional, organism-based; conditions: CV-1
[7] = system: Human alphaherpesvirus 1; test: Antiviral activity against HSV1 in african green monkey CV1 cells at 1 ug/ml by plaque reduction method; type: functional, organism-based; conditions: CV-1
[8] = system: Vesicular stomatitis virus; test: Antiviral activity against VSV in BHK cells at 0.01 ug/ml by plaque reduction method; type: functional, organism-based

C=C1[C@@H](O)[C@@H]2O[C@]3(CC[C@H](/C=C/[C@@H](C)[C@@H]4CC(C)=C[C@@]5(O[C@H](C[C@@](C)(O)C(=O)O)CC[C@H]5O)O4)O3)CC[C@H]2O[C@@H]1[C@@H](O)C[C@H](C)[C@H]1O[C@@]2(CCCCO2)CC[C@H]1C [OKADAIC ACID]
IC50 [1]: 5 ng/mL (≈ 6.21 nM) | inhibition zone (IZ) [2]: 0 mm | inhibition zone (IZ) [3]: 22 mm

C=C1[C@@H](O)[C@@H]2O[C@]3(CC[C@H](/C=C/[C@@H](C)[C@@H]4CC(C)=C[C@@]5(O[C@H](C[C@@](C)(O)C(=O)O)CC[C@H]5O)O4)O3)CC[C@H]2O[C@@H]1[C@@H](O)C[C@H](C)[C@H]1O[C@@]2(CC[C@H]1C)OCCC[C@H]2C [DINOPHYSISTOXIN 1]
Activity [4]: Active | IC50 [1]: 2 ng/mL (≈ 2.44 nM) | inhibition zone (IZ) [2]: 0 mm | Activity [5]: Toxic | Activity [6]: inactive | Activity [3]: Toxic | Activity [7]: Active

C=C1[C@@H](O)[C@@H]2O[C@]3(CC[C@H](CC[C@@H](C)[C@@H]4CC(C)=C[C@@]5(O[C@H](C[C@@](C)(O)C(=O)O)CC[C@H]5O)O4)O3)CC[C@H]2O[C@@H]1[C@@H](O)C[C@H](C)[C@H]1O[C@@]2(CC[C@H]1C)OCCC[C@H]2C
IC50 [1]: 3 ng/mL (≈ 3.65 nM) | inhibition zone (IZ) [2]: 0 mm | Activity [5]: Toxic | Activity [6]: inactive | inhibition zone (IZ) [3]: 0 mm | Activity [8]: Active
